Molecular target: T1, CXCR3 (Homo sapiens, UniProt P49682)
T1 construct: host or cells: CHO-K1 (cAMP Hunter CHOK1 CXCR3 Gi cell line)
T1 sequence (P49682 1-368): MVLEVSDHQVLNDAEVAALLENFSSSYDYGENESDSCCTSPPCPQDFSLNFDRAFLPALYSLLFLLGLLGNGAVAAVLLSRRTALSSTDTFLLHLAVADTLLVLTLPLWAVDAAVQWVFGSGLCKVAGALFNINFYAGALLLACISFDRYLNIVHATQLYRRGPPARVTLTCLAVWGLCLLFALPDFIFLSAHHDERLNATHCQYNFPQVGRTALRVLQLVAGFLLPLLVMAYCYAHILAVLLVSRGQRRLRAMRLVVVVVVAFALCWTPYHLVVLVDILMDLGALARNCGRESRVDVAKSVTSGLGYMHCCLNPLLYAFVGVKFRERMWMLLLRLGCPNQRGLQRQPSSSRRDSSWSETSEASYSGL
Assay: CXCR3 cAMP agonist assay (cAMP Hunter CHOK1 CXCR3 Gi cell line, forskolin-stimulated, HitHunter cAMP detection)
Assay type: cell-based
Details: cAMP Hunter CHOK1 CXCR3 Gi cells, 20 μM forskolin, 30 minutes; read-out: Activity (CXCR3 cAMP agonist assay compound EC50)
Procedure: The cAMP Hunter™ CHOK1 CXCR3 Gi cell line was purchased from DiscoveRx. Cells were seeded into a 96-well white assay plate at 50,000 cells/well/94 μl assay buffer (Hank's Buffered Saline Solution, 10 mM HEPES, 0.1% fatty acid-free BSA, pH 7.4) and immediately assayed in suspension. Forskolin was added to 20 μM (5 μl of 400 μM stock) simultaneously with a 12-point dose response curve of compound at 0-10 μM (1 μl of 100× stock in 100% DMSO), and cells were incubated for 30 minutes. A cAMP standard curve is run as an assay control. A CXCL11 dose response was included to determine maximum efficacy. Direct detection of cAMP was carried out using the DiscoveRx HitHunter cAMP kit according to manufacturer's instructions, and luminescence was read using a SpectraMax M5 plate reader.

Compound | EC50
NCC[C@H](NC(=O)[C@@H]1Cc2ccccc2CN1C(=O)CCC(=O)c1ccccc1)C(=O)Nc1ccc2c(c1)C(=O)CC2 [Compound 2-68] | 50 to 250 nM
NCC[C@H](NC(=O)[C@@H]1Cc2ccccc2CN1C(=O)CCC(=O)c1ccccc1)C(=O)Nc1ccc2c(c1)CCC2=O [Compound 2-69] | > 500 nM
COc1cc(F)c(F)cc1NC(=O)[C@H](CCN)NC(=O)[C@@H]1Cc2ccccc2CN1C(=O)CCC(=O)c1ccccc1 [Compound 2-70] | 250 to 500 nM
COc1cc(C)c(F)cc1NC(=O)[C@H](CCN)NC(=O)[C@@H]1Cc2ccccc2CN1C(=O)CCC(=O)c1ccccc1 [Compound 2-71] | 50 to 250 nM
CC1(C)CCc2cc(NC(=O)[C@H](CCN)NC(=O)[C@@H]3Cc4ccccc4CN3C(=O)CCC(=O)c3ccccc3)ccc21 [Compound 2-72] | < 50 nM
NCC[C@H](NC(=O)[C@@H]1Cc2ccccc2CN1C(=O)CCC(=O)c1ccccc1)C(=O)Nc1cc2c(cc1Cl)CCC2 [Compound 2-73] | < 50 nM
NCC[C@H](NC(=O)[C@@H]1Cc2ccccc2CN1C(=O)CCC(=O)c1ccccc1)C(=O)Nc1cc2c(cc1O)CCC2 [Compound 2-74] | 50 to 250 nM
CC1(C)Cc2ccc(NC(=O)[C@H](CCN)NC(=O)[C@@H]3Cc4ccccc4CN3C(=O)CCC(=O)c3ccccc3)cc2C1 [Compound 2-75] | 50 to 250 nM
COc1cc(C(F)(F)F)c(C)cc1NC(=O)[C@H](CCN)NC(=O)[C@@H]1Cc2ccccc2CN1C(=O)CCC(=O)c1ccccc1 [Compound 2-76] | 50 to 250 nM
NCC[C@H](NC(=O)[C@@H]1Cc2ccccc2CN1C(=O)CCC(=O)c1ccccc1)C(=O)Nc1ccc2c(c1Cl)CCC2 [Compound 2-77] | 50 to 250 nM
NCC[C@H](NC(=O)[C@@H]1Cc2ccccc2CN1C(=O)CCC(=O)c1ccccc1)C(=O)Nc1cc2c(cc1F)CCC2 [Compound 2-78] | < 50 nM
COc1cc(C)c(C)cc1NC(=O)[C@H](CCN)NC(=O)[C@@H]1Cc2ccccc2CN1C(=O)CCC(=O)c1ccccc1 [Compound 2-79] | < 50 nM
NCC[C@H](NC(=O)[C@@H]1Cc2ccccc2CN1C(=O)CCC(=O)c1ccccc1)C(=O)Nc1ccc2scnc2c1 [Compound 2-80] | 250 to 500 nM
NCC[C@H](NC(=O)[C@@H]1Cc2ccccc2CN1C(=O)CCC(=O)c1ccccc1)C(=O)NC1CCc2ccccc2C1 (some centres unmarked) [Compound 2-81] | 50 to 250 nM
CN1Cc2ccc(NC(=O)[C@H](CCN)NC(=O)[C@@H]3Cc4ccccc4CN3C(=O)CCC(=O)c3ccccc3)cc2C1 [Compound 2-82] | < 50 nM
NC(=O)NCCC[C@H](NC(=O)[C@@H]1Cc2ccccc2CN1C(=O)CCC(=O)c1ccccc1)C(=O)Nc1ccc(Cl)c(Cl)c1 [Compound 3-1, (S)—N—((S)-1-((3,4-dichlorophenyl)amino)-1-oxo-5-ureidopentan-2-yl)-2-(4-oxo-4-phenylbutanoyl)-1,2,3,4-tetrahydroisoquinoline-3-carboxamide] | 50 to 250 nM
Cc1cc(NC(=O)[C@H](CCNC(=N)N)NC(=O)[C@@H]2Cc3ccccc3CN2C(=O)CCC(=O)c2ccccc2)ccc1Cl [Compound 3-2] | < 50 nM
Cc1cc(NC(=O)[C@H](Cc2ccncc2)NC(=O)[C@@H]2Cc3ccccc3CN2C(=O)CCC(=O)c2ccccc2)ccc1Cl [Compound 3-4] | 50 to 250 nM
Cc1cc(NC(=O)[C@H](Cc2ccccn2)NC(=O)[C@@H]2Cc3ccccc3CN2C(=O)CCC(=O)c2ccccc2)ccc1Cl [Compound 3-5] | 50 to 250 nM
NC(=O)NCCCC[C@H](NC(=O)[C@@H]1Cc2ccccc2CN1C(=O)CCC(=O)c1ccccc1)C(=O)Nc1ccc(Cl)c(Cl)c1 [Compound 3-6] | 250 to 500 nM
Cc1cc(NC(=O)[C@H](CCN(C(C)C)C(C)C)NC(=O)[C@@H]2Cc3ccccc3CN2C(=O)CCC(=O)c2ccccc2)ccc1Cl [Compound 3-7] | < 50 nM
Cc1cc(NC(=O)[C@H](CCN2CCCC2)NC(=O)[C@@H]2Cc3ccccc3CN2C(=O)CCC(=O)c2ccccc2)ccc1Cl [Compound 3-8] | < 50 nM
Cc1cc(NC(=O)[C@H](CCN2CCCCC2)NC(=O)[C@@H]2Cc3ccccc3CN2C(=O)CCC(=O)c2ccccc2)ccc1Cl [Compound 3-9] | < 50 nM

From patent publication US11040954B1, “CXCR3 receptor agonists” (RECEPTOS LLC, priority 2016, dated 2021)
